Consider 62 molecules from PMC8041284, “Tunable Methacrylamides for Covalent Ligand Directed Release Chemistry” (Journal of the American Chemical Society, 2021).

In one experiment the target is BTK (Homo sapiens, UniProt Q06187). As to the kind of experiment: biochemical. As to conditions: read-out: BTK inhibition (%).
Chain of BTK (Q06187 402-655 limits assumed): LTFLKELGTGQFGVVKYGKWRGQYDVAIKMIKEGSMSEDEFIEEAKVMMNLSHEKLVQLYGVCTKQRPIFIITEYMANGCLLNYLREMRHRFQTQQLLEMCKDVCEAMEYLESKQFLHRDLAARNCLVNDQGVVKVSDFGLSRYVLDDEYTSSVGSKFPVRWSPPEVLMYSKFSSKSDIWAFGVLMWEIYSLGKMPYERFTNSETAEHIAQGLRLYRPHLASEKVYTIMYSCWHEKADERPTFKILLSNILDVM
A word on the inhibition: it is the drop in the measured response relative to a control, in per cent. Turning to `O=C(O)CNC(=O)C1C(=O)N(C2CCCCC2)C(=O)N(C2CCCCC2)C1=O` [PCM-0215600], the inhibition at 10 µM was determined as 13.9%.

As for `S=C=Nc1cccc(NC(=S)NCCCCNC(=S)Nc2cccc(N=C=S)c2)c1` [PCM-0095477], the inhibition at 10 µM came to 38.9%.

Consider `COC1=C[C@]23CCCN2CCc2cc4c(cc2[C@@H]3[C@@H]1O)OCO4` [PCM-0214978], for which the inhibition at 10 µM is 0%.

With `C[C@@H]1CC[C@@]2(NC1)O[C@H]1C[C@H]3[C@@H]4CC=C5C[C@@H](O[C@@H]6O[C@H](CO)[C@@H](O[C@@H]7O[C@@H](C)[C@H](O)[C@@H](O)[C@H]7O)[C@H](O)[C@H]6O)CC[C@]5(C)[C@H]4CC[C@]3(C)[C@H]1[C@@H]2C` [PCM-0216606], the inhibition at 10 µM was -6.9%.

The experiment is the same for the next values; noted with them: read-out: BTK inhibition (%), 0.75 uM BTK, […] probe 3l, 15 min preincubation.
With `COC(=O)N[C@H](C(=O)N1CCC[C@H]1C(=O)Nc1ccc([C@@H]2CC[C@@H](c3ccc(NC(=O)[C@@H]4CCCN4C(=O)[C@@H](NC(=O)OC)C(C)C)cc3)N2c2ccc(C(C)(C)C)cc2)cc1)C(C)C` [PCM-0216056], the inhibition at 10 µM was determined as 18.5%.

Turning to `CCCCCCCCCCC[C@@H](C[C@@H]1OC(=O)[C@H]1CCCCCC)OC(=O)[C@H](CC(C)C)NC=O` [PCM-0095181], the inhibition at 10 µM was -13.2%.

Take `NCCOCCOCCNC(=O)Cc1ccc(Nc2nc(NCc3ccc(F)cc3)nc(NCC3CCCCC3)n2)cc1` [PCM-0215568]: the inhibition at 10 µM was -36.3%.

As for `C[C@H](CC[C@@H](O[C@@H]1O[C@H](CO[C@@H]2O[C@H](CO)[C@@H](O)[C@H](O)[C@H]2O)[C@@H](O)[C@H](O)[C@H]1O[C@@H]1O[C@H](CO)[C@@H](O)[C@H](O)[C@H]1O)C(C)(C)O)[C@H]1CC[C@@]2(C)[C@@H]3CC=C4[C@@H](CC[C@H](O[C@@H]5O[C@H](CO[C@@H]6O[C@H](CO)[C@@H](O)[C@H](O)[C@H]6O)[C@@H](O)[C@H](O)[C@H]5O)C4(C)C)[C@]3(C)[C@H](O)C[C@]12C` [PCM-0214952], the inhibition at 10 µM was -2.3%.

Turning to `CCCc1nc(C)c2c(=O)[nH]c(-c3cc(S(=O)(=O)N4CCN(CC)CC4)ccc3OCC)nn12` [PCM-0086229], the inhibition at 10 µM is -10.9%.

`C=CC(=O)Nc1cccc(Nc2nc(Nc3ccc(Oc4ccnc(C(=O)NC)c4)cc3)ncc2F)c1` [PCM-0215277]: the inhibition at 10 µM turned out to be 115%.

`C#C[C@]1(O)C=C[C@H]2[C@@H]3CCC4=CC(=O)CC[C@@H]4[C@H]3CC[C@@]21CC` [PCM-0214616]: the inhibition at 10 µM turned out to be 3.1%.

As for `CCCCOc1ccc(CC(=O)NO)cc1` [PCM-0085771], the inhibition at 10 µM amounted to 6.9%.

Regarding `CCCCCCCCC/C(=C\C1=C(C)C(=O)C(OC)=C(OC)C1=O)C(=O)O` [PCM-0215484], the inhibition at 10 µM is -13.9%.

As for `COc1cc2c(Nc3ccc(Br)cc3F)ncnc2cc1OCC1CCN(C)CC1` [PCM-0094968], the inhibition at 10 µM stood at 25.5%.

Turning to `OC[C@H]1O[C@@H](c2ccc(F)c(Cc3cc4ccccc4s3)c2)[C@H](O)[C@@H](O)[C@@H]1O` [PCM-0215870], the inhibition at 10 µM stood at 1.5%.

On to `CC1=C[C@H](O)CC(C)(C)[C@H]1/C=C/C(C)=C/C=C/C(C)=C/C=C/C=C(C)/C=C/C=C(C)/C=C/C1=C(C)C[C@@H](O)CC1(C)C` [PCM-0215916], for which the inhibition at 10 µM amounted to 0.8%.

For the molecule `Cc1ccc(OCC(O)C(C)NC(C)C)c2c1CCC2` (centres unmarked) [PCM-0215619], the inhibition at 10 µM was found to be 13.9%.

Regarding `C[C@]12CCC(=O)C=C1[C@@H]1C[C@@H]1[C@H]1[C@@H]3[C@@H]4C[C@@H]4[C@@]4(CCC(=O)O4)[C@@]3(C)CC[C@@H]12` [PCM-0214617], the inhibition at 10 µM was -15.6%.

`O=c1cc(N2CCOCC2)oc2c(-c3ccccc3)cccc12` [PCM-0065588]: the inhibition at 10 µM is -22.1%.

As to `O=C(O)C1=CO[C@@H](O[C@@H]2O[C@H](CO)[C@@H](O)[C@H](O)[C@H]2O)[C@@H]2C(CO)=CC[C@H]12` [PCM-0086855], the inhibition at 10 µM was -2.8%.

In the case of `COc1ccc(O)cc1` [PCM-0090031], the inhibition at 10 µM is 12.5%.

On to `CC(C)[C@H]1C(=O)N[C@@H](CCCN=C(N)N)C(=O)NCC(=O)N[C@@H](CC(=O)O)C(=O)N[C@H](Cc2ccccc2)C(=O)N1C` [PCM-0095583], for which the inhibition at 10 µM is -6.9%.

On to `COc1cc2c(cc1OC)CC(=O)N(CCCN(C)C[C@H]1Cc3cc(OC)c(OC)cc31)CC2` [PCM-0095255], for which the inhibition at 10 µM was -3.1%.

On to `CC[C@H]1CN2CC[C@]3(C(=O)Nc4ccccc43)[C@@H]2C[C@@H]1/C(=C\OC)C(=O)OC` [PCM-0216305], for which the inhibition at 10 µM stood at 3.9%.

For the molecule `CC(=O)O[C@@H]1C[C@@H]2CC[C@@]1(C)C2(C)C` [PCM-0215932], the inhibition at 10 µM was -21.4%.

On to `CC(C)(C)OC(=O)N[C@H]1CCCCC/C=C\[C@@H]2C[C@@]2(C(=O)NS(=O)(=O)C2CC2)NC(=O)[C@@H]2C[C@@H](OC(=O)N3Cc4cccc(F)c4C3)CN2C1=O` [PCM-0214602], for which the inhibition at 10 µM was -12.5%.

Consider `CCCCc1nc(C)c(CC(=S)N(C)C)c(=O)n1Cc1ccc(-c2ccccc2-c2nn[nH]n2)cc1` [PCM-0215150], for which the inhibition at 10 µM is -6.2%.

Regarding `N#CC(c1ccc(Cl)cc1)c1c(Cl)cc(-n2ncc(=O)[nH]c2=O)cc1Cl` (centres unmarked) [PCM-0086206], the inhibition at 10 µM is -0.8%.

`COc1cc(-n2c(=S)[nH]c3ccccc3c2=O)c(Cl)cc1Cl` [PCM-0095750]: the inhibition at 10 µM is 29.3%.

For the molecule `CN[C@H](CC(=O)O)C(=O)O` [PCM-0065539], the inhibition at 10 µM is -10%.

In the case of `CC(=O)O/N=C1\C(=O)N(Cc2cc(Cl)ccc2Cl)c2ccc(Cl)cc21` [PCM-0095733], the inhibition at 10 µM was 28.6%.

On to `CCCOc1ccc2nc(NC(=O)OC)[nH]c2c1` [PCM-0086075], for which the inhibition at 10 µM stood at 10.2%.

For the molecule `CC1(C)CC[C@]2(C(=O)O)CC[C@]3(C)C(=CC[C@@H]4[C@@]5(C)CC[C@H](O[C@@H]6O[C@H](C(=O)O)[C@@H](O)[C@H](O[C@@H]7OC[C@@H](O)[C@H](O)[C@H]7O)[C@H]6O)C(C)(C)[C@@H]5CC[C@]43C)[C@@H]2C1` [PCM-0216434], the inhibition at 10 µM came to 3.9%.

As for `CCOC(=O)c1ncn2c1CN(C)C(=O)c1cc(F)ccc1-2` [PCM-0065129], the inhibition at 10 µM turned out to be 3.1%.

`C[C@H]1CC[C@@]2(O)C(C)(C)[C@@H]3CC[C@@]2(C)[C@H]1C3` [PCM-0215010]: the inhibition at 10 µM is 2.8%.

For the molecule `CN[C@H](CC(C)C)C(=O)N[C@H]1C(=O)N[C@@H](CC(N)=O)C(=O)N[C@H]2C(=O)N[C@H]3C(=O)N[C@H](C(=O)N[C@H](C(=O)O)c4cc(O)cc(O)c4-c4cc3ccc4O)[C@H](O)c3ccc(c(Cl)c3)Oc3cc2cc(c3O[C@@H]2O[C@H](CO)[C@@H](O)[C@H](O)[C@H]2O[C@H]2C[C@](C)(N)[C@H](O)[C@H](C)O2)Oc2ccc(cc2Cl)[C@H]1O` [PCM-0064980], the inhibition at 10 µM was determined as 4.3%.

As for `CC(C)CN(CC(=O)N1CCN(CC(OCc2ccc3ccccc3c2)c2ccc(Cl)cc2Cl)CC1)CC(C)C` (centres unmarked) [PCM-0215889], the inhibition at 10 µM was found to be 93.4%.

For `CCN(C(=O)c1c(O)c2c(Cl)cccc2n(C)c1=O)c1ccccc1` [PCM-0095368], the inhibition at 10 µM worked out at 11%.

As for `Cc1ccc(C(C)C)c(O)c1` [PCM-0215949], the inhibition at 10 µM came to 23.2%.

As for `C[N+]1(C)CCC(=C(c2ccccc2)c2ccccc2)CC1` [PCM-0085922], the inhibition at 10 µM was determined as 13.2%.

In the case of `COc1cc(C=O)ccc1O` [PCM-0094868], the inhibition at 10 µM was determined as 21.8%.

Turning to `CC1=C[C@@]2(O)O[C@@]3(CC2=C(C)C)[C@@H](C)CC[C@@H]13` [PCM-0214997], the inhibition at 10 µM turned out to be 20.7%.

Regarding `COc1c(C)c(O)cc2[o+]c(-c3ccccc3)ccc12` [PCM-0216513], the inhibition at 10 µM is 38.6%.

On to `CCOc1cc(C(C)(C)C)ccc1C1=N[C@@](C)(c2ccc(Cl)cc2)[C@@](C)(c2ccc(Cl)cc2)N1C(=O)N1CCN(CCCS(C)(=O)=O)CC1` [PCM-0215548], for which the inhibition at 10 µM is 16.2%.

With `COc1cc(N2CCN(C)CC2)ccc1Nc1ncc2c(n1)N(C)c1ccccc1C(=O)N2` [PCM-0213372], the inhibition at 10 µM came to 11%.

Turning to `CCN1CCN(c2cc3c(cc2F)c(=O)c(C(=O)O)cn3C2CC2)CC1` [PCM-0090392], the inhibition at 10 µM was -11.9%.

Turning to `Cc1c(-c2ccccc2)oc2c(C(=O)OCCN3CCCCC3)cccc2c1=O` [PCM-0085770], the inhibition at 10 µM is 12.8%.

Take `CN1CCN2c3ncccc3Cc3ccccc3C2C1` (centres unmarked) [PCM-0086153]: the inhibition at 10 µM came to 12.5%.

Turning to `CS(=O)(=O)n1cc2c(n1)CN([C@H]1CO[C@H](c3cc(F)ccc3F)[C@@H](N)C1)C2` [PCM-0215833], the inhibition at 10 µM amounted to 4.6%.

For `CC1(C)C=Cc2c(ccc3c2OC[C@@H](c2ccc(O)cc2O)C3)O1` [PCM-0214974], the inhibition at 10 µM is 70.3%.

Consider `Cc1ccccc1CN1C2=NCCN2C(=O)C2=C1CCN(Cc1ccccc1)C2` [PCM-0095783], for which the inhibition at 10 µM is -19.3%.

With `C[C@H](Cc1cc2c(c(C(N)=O)c1)N(CCCO)CC2)NCCOc1ccccc1OCC(F)(F)F` [PCM-0214784], the inhibition at 10 µM is -12.5%.

For `C/C(=C\C(=O)OCCCCCCCCC(=O)O)C[C@@H]1OC[C@H](C[C@@H]2O[C@H]2[C@@H](C)[C@H](C)O)[C@@H](O)[C@H]1O` [PCM-0101899], the inhibition at 10 µM was found to be 7%.

Take `O=C(/C=C/c1ccc(O)c(O)c1)c1ccc(O)cc1O` [PCM-0095622]: the inhibition at 10 µM turned out to be 55.2%.

For the molecule `OC[C@@H](O)C(O)[C@@H](O)CO` (some centres unmarked) [PCM-0090917], the inhibition at 10 µM worked out at 2.3%.

`O=C(c1ccc(OCCCc2cnc[nH]2)cc1)C1CC1` [PCM-0065087]: the inhibition at 10 µM is -14.5%.

Regarding `CC(=O)N[C@@H](CS)C(=O)O` [PCM-0064400], the inhibition at 10 µM worked out at 5.5%.

Regarding `CC1Cc2ccccc2N1NC(=O)c1ccc(Cl)c(S(N)(=O)=O)c1` (centres unmarked) [PCM-0085884], the inhibition at 10 µM was 6.2%.

Consider `COc1cc2nccc(Oc3ccc(NC(=O)Nc4cc(C)on4)c(Cl)c3)c2cc1OC` [PCM-0094927], for which the inhibition at 10 µM stood at 84.1%.

Take `CN(C)C/C=C/C(=O)Nc1ccc(C(=O)Nc2cccc(Nc3ncc(Cl)c(-c4c[nH]c5ccccc45)n3)c2)cc1` [PCM-0213464]: the inhibition at 10 µM came to 117%.

Consider `CC(C)C(C(=O)O)N1C(=O)/C(=C\c2ccc(Br)cc2)SC1=S` (centres unmarked) [PCM-0215783], for which the inhibition at 10 µM is -3.1%.

For `C[n+]1c2ccccc2nc2ccccc21` [PCM-0216061], the inhibition at 10 µM was 64.9%.
